Source: publication PMC8877721 (Journal of medicinal chemistry, 2021)

What was measured:
[1] = system: ZIKV (strain PRABC59); details: 1 mM ddhC over 24 h; cited from earlier work
[2] = system: HUH7 cells; experiment: In cellulo metabolism of 1 and ddhC to ddhCTP in HUH7 cells; type: cell-based, human; details: 100 μM
[3] = system: HUH7 cells; experiment: Alamar Blue cell viability assay, HUH7 cells; type: cell-based, human; details: 2 days in culture
[4] = system: WNV; experiment: Antiviral plaque assay, WNV; type: cell-based, West Nile virus; details: MOI 0.1, 3 days post-infection
[5] = system: Vero cells; experiment: Alamar Blue cell viability assay, Vero cells; type: cell-based; details: 2 days in culture
[6] = system: HEK293 cells; details: HEK293 cells exposed to ddhC, after 48 h; cited from earlier work
[7] = PAMPA assay; cited from earlier work
[8] = system: ZIKV (strain PRABC59); experiment: Antiviral plaque assay, ZIKV; type: cell-based, Zika virus; details: for reduction in ZIKV virus levels: 0.1 mM dose, MOI 0.1, plaque titration 4 days post-infection
[9] = biological target: ZIKV NS5 RdRp (Zika virus, UniProt A0A024B7W1); experiment: ZIKV RdRp-catalyzed nucleotide incorporation; type: biochemical; details: synthetic ddhCTP
Sequence of ZIKV NS5 RdRp (A0A024B7W1 2521-3423): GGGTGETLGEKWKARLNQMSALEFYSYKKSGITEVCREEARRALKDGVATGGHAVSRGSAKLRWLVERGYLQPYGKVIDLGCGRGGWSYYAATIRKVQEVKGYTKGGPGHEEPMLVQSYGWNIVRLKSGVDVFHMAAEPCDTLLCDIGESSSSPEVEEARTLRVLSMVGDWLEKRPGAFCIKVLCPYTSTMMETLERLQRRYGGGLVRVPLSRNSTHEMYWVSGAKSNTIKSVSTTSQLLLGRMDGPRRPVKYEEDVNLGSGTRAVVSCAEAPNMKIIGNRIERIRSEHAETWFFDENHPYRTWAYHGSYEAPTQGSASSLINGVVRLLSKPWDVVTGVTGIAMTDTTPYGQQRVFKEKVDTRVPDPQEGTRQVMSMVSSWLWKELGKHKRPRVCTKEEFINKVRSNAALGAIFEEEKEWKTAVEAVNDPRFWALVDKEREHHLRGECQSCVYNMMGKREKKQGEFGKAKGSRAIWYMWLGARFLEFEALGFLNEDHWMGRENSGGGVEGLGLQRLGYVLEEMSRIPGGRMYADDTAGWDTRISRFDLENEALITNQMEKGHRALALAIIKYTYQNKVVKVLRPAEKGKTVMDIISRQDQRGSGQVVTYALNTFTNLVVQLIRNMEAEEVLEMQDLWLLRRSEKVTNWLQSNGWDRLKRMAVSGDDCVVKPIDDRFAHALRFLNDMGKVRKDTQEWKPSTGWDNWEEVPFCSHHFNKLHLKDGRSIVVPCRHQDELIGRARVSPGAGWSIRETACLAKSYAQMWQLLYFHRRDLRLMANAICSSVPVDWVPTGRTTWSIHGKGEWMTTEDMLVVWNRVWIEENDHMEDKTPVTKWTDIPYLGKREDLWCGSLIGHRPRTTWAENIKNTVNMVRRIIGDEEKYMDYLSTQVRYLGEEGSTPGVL

[10] = biological target: T1, DNA polymerase γ (catalytic domain) (Homo sapiens, UniProt P54098); experiment: Enzymatic incorporation of ddhCTP by DNA polymerase gamma; type: biochemical; details: 100 μM nucleotide, 0, 10 or 20 min, gel electrophoresis
T1 sequence (P54098 1-1239): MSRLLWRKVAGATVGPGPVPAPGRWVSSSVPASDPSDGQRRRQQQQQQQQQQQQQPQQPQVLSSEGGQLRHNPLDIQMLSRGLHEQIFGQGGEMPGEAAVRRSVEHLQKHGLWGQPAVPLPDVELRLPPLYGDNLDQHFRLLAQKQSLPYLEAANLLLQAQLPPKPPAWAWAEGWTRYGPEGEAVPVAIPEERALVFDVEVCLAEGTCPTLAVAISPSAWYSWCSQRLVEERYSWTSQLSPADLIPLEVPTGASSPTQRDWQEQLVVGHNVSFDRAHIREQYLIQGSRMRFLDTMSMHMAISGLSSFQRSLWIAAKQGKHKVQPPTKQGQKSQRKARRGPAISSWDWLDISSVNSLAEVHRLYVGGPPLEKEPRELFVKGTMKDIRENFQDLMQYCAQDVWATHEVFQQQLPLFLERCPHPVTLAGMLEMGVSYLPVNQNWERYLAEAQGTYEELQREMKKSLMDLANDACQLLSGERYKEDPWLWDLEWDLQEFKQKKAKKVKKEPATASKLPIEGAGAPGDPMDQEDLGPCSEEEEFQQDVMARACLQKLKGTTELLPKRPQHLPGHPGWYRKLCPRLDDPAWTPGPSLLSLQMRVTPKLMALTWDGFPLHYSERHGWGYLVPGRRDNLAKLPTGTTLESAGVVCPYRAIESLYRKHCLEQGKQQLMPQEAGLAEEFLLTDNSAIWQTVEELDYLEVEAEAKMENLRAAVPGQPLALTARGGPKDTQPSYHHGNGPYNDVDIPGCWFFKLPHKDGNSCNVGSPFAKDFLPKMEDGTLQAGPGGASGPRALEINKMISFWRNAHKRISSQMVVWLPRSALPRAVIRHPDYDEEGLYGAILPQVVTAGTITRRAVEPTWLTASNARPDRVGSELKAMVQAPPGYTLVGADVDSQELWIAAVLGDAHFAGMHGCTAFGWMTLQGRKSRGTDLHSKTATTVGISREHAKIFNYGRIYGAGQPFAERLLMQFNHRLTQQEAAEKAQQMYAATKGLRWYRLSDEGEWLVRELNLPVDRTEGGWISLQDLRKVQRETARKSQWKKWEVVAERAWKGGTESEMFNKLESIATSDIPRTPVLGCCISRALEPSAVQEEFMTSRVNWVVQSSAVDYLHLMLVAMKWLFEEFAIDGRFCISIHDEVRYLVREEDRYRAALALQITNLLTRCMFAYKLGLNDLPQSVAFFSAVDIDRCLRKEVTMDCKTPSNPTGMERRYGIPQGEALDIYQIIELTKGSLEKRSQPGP

## Nc1ccn([C@@H]2OC(CO)=C[C@H]2O)c(=O)n1 [ddhC, 3’-deoxy-3’,4’-didehydro-cytidine]
[1]
  reduction of ZIKV levels in infected Vero cells: 50-200 x
[2]
  dosed compound in HUH7 lysate 24 h following dosage (cell permeable): detected
[3]
  cytotoxicity (in words): neither ddhC nor 1 were cytotoxic
[4]; HUH7 cells
  activity against WNV (in words): ineffective
[4]; HUH7.5 cells
  activity against WNV (in words): ineffective
[4]; Vero cells
  activity against WNV (in words): ineffective
[5]
  cytotoxicity (in words): neither ddhC nor 1 were cytotoxic
[6]
  ddhCTP produced: ~ 100 μM

## CC(C)OC(=O)[C@H](C)N[P@](=O)(OC[C@H]1O[C@@H](n2ccc(=O)[nH]c2=O)[C@](C)(F)[C@@H]1O)Oc1ccccc1 [sofosbuvir]
[7]
  Papp: 0.046 ×10⁻⁶ cm/s

## CC(C)OC(=O)[C@H](C)NP(=O)(OCC1=C[C@@H](O)[C@H](n2ccc(N)nc2=O)O1)Oc1ccccc1 (stereo in doubt) [compound 1, Isopropyl ((S)-(((4R,5R)-5-(4-amino-2-oxopyrimidin-1(2H)-yl)-4-hydroxy-4,5-dihydrofuran-2-yl)methoxy)(phenoxy)phosphoryl)-L-alaninate]
[2]
  dosed compound in HUH7 lysate 24 h following dosage (cell permeable): detected
[8]; HUH7 cells
  reduction in ZIKV virus levels: > 1 log10 pfu/mL
[8]; HUH7.5 cells
  reduction in ZIKV virus levels: > 1 log10 pfu/mL
[8]; Vero cells, MOI 0.1, 4 days post-infection, compared with HUH7 and HUH7.5
  activity against ZIKV in Vero cells (in words): weaker activity
[3]
  cytotoxicity (in words): neither ddhC nor 1 were cytotoxic
[4]; HUH7 cells
  reduction of WNV levels: > 4 log10 pfu/mL
[4]; HUH7.5 cells
  reduction of WNV levels: > 4 log10 pfu/mL
[4]; Vero cells
  activity against WNV (in words): inactive
[5]
  cytotoxicity (in words): neither ddhC nor 1 were cytotoxic

## Nc1ccn([C@@H]2OC(COP(=O)(O)OP(=O)(O)OP(=O)(O)O)=C[C@H]2O)c(=O)n1 [ddhCTP, 3’-Deoxy-3’,4’-didehydrocytidine-5’-triphosphate]
[9]
  mode of action in primer extension assay (in words): obligate chain terminator
[10]
  substrate for DNA polymerase γ (in words): not a substrate
